Patent US11925611B2, “Use of ZT-1A and analogs thereof to prevent and/or treat neurodegenerative and neurocognitive disorders” (United States Government as Represented by the Department …, priority 2021, dated 2024)
Like-named read-outs stand apart in the source and are kept apart here.

Experiments:
Type in all cases: cell-based
[1] = tested on: NKCC1; assay: Cellular inhibition of NKCC1 phosphorylation (pThr203); details: n = 3, — = no inhibition
From the text: (§1) 8. Cellular Activity Profile of Inhibitors with the Salicyclic Amide
(§2) A list of the compounds evaluated for their ability to inhibit phosphorylation of SPAK/NKCC1/KCC3 activity is illustrated in Table 1 below.

[2] = tested on: KCC3; assay: Cellular inhibition of KCC3 phosphorylation (pThr991, pThr1048); details: Isotonic conditions; n = 3; — = no inhibition; read-out: KCC3 pThr1048 (μM) Iso
From the text: as §1, §2

[3] = target: SPAK (Homo sapiens, UniProt Q9UEW8); assay: Cellular inhibition of SPAK phosphorylation (pSer373); details: 50% inhibition of phosphorylation, n = 3, — = no inhibition
From the text: as §1, §2

[4] = Hypotonic conditions, read-out: NKCC1 pThr203 (μM) hypo
[5] = Isotonic conditions, read-out: NKCC1 pThr203 (μM) Iso
[6] = Hypotonic conditions, read-out: SPAK pSer373 (μM) hypo
[7] = Isotonic conditions, read-out: SPAK pSer373 (μM) Iso

IC50 [1, 4] [µM]	IC50 [1, 5] [µM]	IC50 [2] [µM]	IC50 [3, 6] [µM]	IC50 [3, 7] [µM]	Structure (SMILES)
3	1	3	3	3	Cc1cc(C(C#N)c2ccc(Cl)cc2)c(Cl)cc1NC(=O)c1cc(F)ccc1O (stereo not drawn) [1g(ZT-06-055-01)]
3	1	3	3	3	Cc1cc(C(C#N)c2ccc(Cl)cc2)c(Cl)cc1NC(=O)c1cccc(F)c1O (stereo not drawn) [1h(ZT-06-039-01)]

The remaining lines, values behind:

Structure (SMILES)	IC50 [1, 4] [µM]	IC50 [1, 5] [µM]	IC50 [2] [µM]	IC50 [3, 6] [µM]	IC50 [3, 7] [µM]
Cc1cc(C(C#N)c2ccc(Cl)cc2)c(Cl)cc1NC(=O)c1ccccc1N (stereo not drawn) [1d(ZT-06-022-01)]	3	1	3	3	3
Cc1cc(C(C#N)c2ccc(Cl)cc2)c(Cl)cc1NC(=O)c1cc(Cl)cc(Cl)c1O (stereo not drawn) [1f]	3	1	3	3	3
Cc1cc(C(C#N)c2ccc(Cl)cc2)c(Cl)cc1NC(=O)c1ccccc1O (stereo not drawn) [1b]	1	3	3	3	3
Cc1cc(C(C#N)c2ccc(Cl)cc2)c(Cl)cc1NC(=O)c1ccccc1S (stereo not drawn) [1c (ZT-05-037-01)]	3	1	3	3	3
